# In paper PMC11475289, “Synthetically accessible de novo design using reaction vectors: Application to PARP1 inhibitors” (Molecular Informatics, 2024):
# Where two headings read alike, the source gives them in different places.
# Experiments:
# full-length human PARP1 = biological target: T1, full-length human PARP1 (Homo sapiens, UniProt P09874); assay: PARP1 enzymatic assay (homogeneous NAD+ consumption assay); format: biochemical; details: 5 nM PARP1, 500 nM NAD+, 30 min
# T1 construct: Briefly, full‐length human PARP1 was produced in E. coli Rosetta2 (DE3); made in house; host or cells: E. coli Rosetta2 (DE3)
# T1 sequence (P09874 whole entry): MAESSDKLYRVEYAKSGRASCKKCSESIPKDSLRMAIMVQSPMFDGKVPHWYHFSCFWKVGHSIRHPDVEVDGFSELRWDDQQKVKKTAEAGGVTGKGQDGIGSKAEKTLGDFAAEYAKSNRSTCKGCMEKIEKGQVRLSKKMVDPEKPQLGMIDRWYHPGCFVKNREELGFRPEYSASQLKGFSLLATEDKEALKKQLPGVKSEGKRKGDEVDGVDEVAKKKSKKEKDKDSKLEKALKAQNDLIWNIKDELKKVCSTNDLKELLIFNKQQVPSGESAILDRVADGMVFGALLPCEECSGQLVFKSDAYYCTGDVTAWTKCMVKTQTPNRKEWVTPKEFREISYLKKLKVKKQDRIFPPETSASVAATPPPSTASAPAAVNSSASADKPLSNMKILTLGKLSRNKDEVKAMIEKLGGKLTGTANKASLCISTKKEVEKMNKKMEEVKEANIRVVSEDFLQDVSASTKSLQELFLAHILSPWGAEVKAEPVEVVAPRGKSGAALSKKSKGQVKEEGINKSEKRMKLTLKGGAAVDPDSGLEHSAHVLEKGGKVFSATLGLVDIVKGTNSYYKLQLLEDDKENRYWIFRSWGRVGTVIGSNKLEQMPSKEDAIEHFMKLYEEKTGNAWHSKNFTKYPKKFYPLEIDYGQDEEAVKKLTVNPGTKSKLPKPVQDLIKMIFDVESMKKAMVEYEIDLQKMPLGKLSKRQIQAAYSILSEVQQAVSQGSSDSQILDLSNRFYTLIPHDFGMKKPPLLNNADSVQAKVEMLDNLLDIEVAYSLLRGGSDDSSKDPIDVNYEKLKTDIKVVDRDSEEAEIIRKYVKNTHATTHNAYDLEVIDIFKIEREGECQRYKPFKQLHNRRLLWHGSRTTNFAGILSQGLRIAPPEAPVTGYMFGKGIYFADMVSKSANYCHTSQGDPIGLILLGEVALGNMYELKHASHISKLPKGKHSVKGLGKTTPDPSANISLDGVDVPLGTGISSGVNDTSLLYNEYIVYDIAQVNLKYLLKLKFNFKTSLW
# Method: PARP1 was expressed and purified as described in the literature. Briefly, full‐length human PARP1 was produced in E. coli Rosetta2 (DE3). The cells were harvested by centrifugation, and re‐suspended in lysis buffer containing 50 mM HEPES pH 8.0, 500 mM NaCl, 10 % glycerol, 0.5 mM TCEP and 10 mM imidazole. The sample was lysed using sonication in the presence of DNAse1 and 3‐aminobenzamide, centrifuged at 18,000 rpm for 1 h and the supernatant was filtered. The clarified sample was loaded to a HiTrap^TM IMAC column (Cytiva), washed with lysis buffer, then with a similar buffer containing 1 M NaCl, and finally with lysis buffer containing 25 mM imidazole before eluting the protein with 500 mM imidazole. The eluted sample was then diluted to reduce NaCl concentration to 250 mM, and loaded to a HiTrap Heparin column (Cytiva). The column was washed with 50 mM HEPES, 250 mM NaCl, 10 % glycerol, 1 mM EDTA, 0.1 mM TCEP, pH 7.5. and the sample was eluted using a gradient with a similar buffer containing 1 M NaCl. Fractions were analyzed by SDS‐PAGE and those containing protein were pooled and concentrated before aliquoting and stored at −70 °C.
# IC50 was determined using homogeneous NAD^+ consumption assay. 5 nM PARP1 was incubated with each compound in log half dilution series for 30 min in 50 mM Tris pH 8.0, 5 mM MgCl2, 0.2 mg mL^−1 BSA, 10 μg mL^−1 activated DNA and 500 nM NAD^+. The reactions were performed in quadruplicates and resulting IC50 curves were fitted to a sigmoidal dose‐response curve (four variables) using GraphPad Prism version 8.02. Each experiment was repeated three times from which pIC50±SEM was calculated. Compounds with IC50 above 1 μM were measured only once.
# [1] = PAMPA BBB permeability (brain polar lipid coated filter); format: in vitro ADME; details: for MR (membrane retention): pH 7.4, 5 h; for Papp at 5 h, 500 μM: PAMPA
# Method: The donor solution (150 μL) was then added to each well of the filter plate. 300 μL of the solution (50 % DMSO in phosphate buffer) were added to each well of the acceptor plate. The sandwich plate was assembled and incubated for 5 h at room temperature. After the incubation time, plates were separated, samples were taken from both the donor and acceptor wells, and the compound concentration was measured by UV/LC–MS. All compounds were tested in three independent experiments. […] (3) Papp=VD×VA/VD+VAAt-ln(1-r)
# Equation (3): Experimental apparent permeability (Papp) calculation as described in the literature modified to yield values in cm s^−1 [67, 68]. […] Drug concentration is estimated by using the peak area integration. (4) %MR=[r-D+A]/Eq×100
# Equation (4): Membrane retention calculation: r is the ratio between drug concentration in the acceptor and equilibrium solutions. D, A, and Eq represent the drug concentration in the donor, acceptor, and equilibrium solutions, respectively.
# [2] = pH 7.4, pH 7.4, donor 500 μM, 5 h, room temperature, read-out: PAMPA BBB Papp
IC50 (result in words) (full-length human PARP1),IC50 (full-length human PARP1; averaged on three replicas) [nM],MR (membrane retention) ([1]; PAMPA BBB) [%],SMILES,also measured
No inhibition,–,–,"Cc1cc(COC(=O)c2c(C)ccc3[nH]ncc23)ccc1C(=O)N1CCOCC1 [Row26, [3‐Methyl‐4‐(morpholine‐4‐carbonyl)phenyl]methyl 5‐methyl‐1H‐indazole‐4‐carboxylate]",–
No inhibition,–,–,"C#CCCNCc1ccc(-c2cc(F)c3c(c2)C(=O)NCC3)c(C)c1 [Row528, 7‐(4‐{[(But‐3‐yn‐1‐yl)amino]methyl}‐2‐methylphenyl)‐5‐fluoro‐1,2,3,4‐tetrahydroisoquinolin‐1‐one]",–
sub‐micromolar,395,–,"O=c1[nH]nc(-c2ccc(Br)cc2)c2ccccc12 [Row86 (I), 4‐(4‐bromophenyl)‐2H‐phthalazin‐1‐one]",–
sub‐micromolar,908,3.6,"CC1CC1C(=O)c1ccc(-c2n[nH]c(=O)c3ccccc23)cc1 (stereo not drawn) [Row745(2), 4‐[4‐(2‐Methylcyclopropanecarbonyl)phenyl]‐1,2‐dihydrophthalazin‐1‐one]","Papp at 5 h, 500 μM ([1]; pH 7.4, PAMPA BBB, read-out: BBB permeability (diffusion)): 2.1 ×10⁻⁶ cm/s; Papp at 5 h, 500 μM [1, 2]: 2.1 ×10⁻⁶ cm/s"
–,–,–,"Cc1ccc(Cn2cc(CCN)c3c(C#N)cccc32)cc1 [Row847, 3‐(2‐Aminoethyl)‐1‐[(4‐methylphenyl)methyl]‐1H‐indole‐4‐carbonitrile]",IC50 (full-length human PARP1; IC50 above 1 μM measured once): 16000 nM
No inhibition,–,–,"Cc1cc(CN)ccc1-c1cc(F)c2c(c1)C(=O)NCC2.Cl [Row528 (I), 7‐[4‐(Aminomethyl)‐2‐methylphenyl]‐5‐fluoro‐1,2,3,4‐tetrahydroisoquinolin‐1‐one hydrochloride]",–
sub‐micromolar,755,–,"CCCC(O)c1ccc(-c2n[nH]c(=O)c3ccccc23)cc1 (stereo not drawn) [Row86, 4‐[4‐(1‐Hydroxybutyl)phenyl]‐1,2‐dihydrophthalazin‐1‐one]",–
–,–,3.0,"O=C(c1cc(Cc2n[nH]c(=O)c3ccccc23)ccc1F)N1CCN(C(=O)C2CC2)CC1 [Olaparib, reference compound]",–
–,–,0.8,"Cc1cc2cc(C(=O)OCc3ccc(C(=O)N4CCOCC4)c(C)c3)ccc2c(=O)[nH]1 [Row514, [3‐Methyl‐4‐(morpholine‐4‐carbonyl)phenyl]methyl 3‐methyl‐1‐oxo‐1,2‐dihydroisoquinoline‐6‐carboxylate]","BBB permeability relative to reference Olaparib ([1]; PAMPA BBB, ratio of Papp): approximately 20 times; Papp at 5 h, 500 μM [1, 2]: 0.325 ×10⁻⁶ cm/s; IC50 (full-length human PARP1; IC50 above 1 μM measured once): 19000 nM"
